According to ChEMBL document CHEMBL3352007, “Deoxyribonuclease inhibitors” (Eur J Med Chem, 2014):
pIC50: −log10 of the molar value.

What was measured:
[1] = biological target: T1, Deoxyribonuclease-1 (Homo sapiens, UniProt P24855); experiment: Inhibition of DNase 1 (unknown origin)
T1 sequence (P24855 whole entry): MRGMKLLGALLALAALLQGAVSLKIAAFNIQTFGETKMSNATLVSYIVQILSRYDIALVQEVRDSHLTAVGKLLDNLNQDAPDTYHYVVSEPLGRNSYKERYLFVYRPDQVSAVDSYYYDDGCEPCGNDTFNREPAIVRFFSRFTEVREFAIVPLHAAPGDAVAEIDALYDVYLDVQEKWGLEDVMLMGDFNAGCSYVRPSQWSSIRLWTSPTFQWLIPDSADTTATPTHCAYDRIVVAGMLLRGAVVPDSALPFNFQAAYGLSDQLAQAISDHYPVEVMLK

[2] = biological target: T1, Deoxyribonuclease-1; experiment: Inhibition of DNase 1 (unknown origin) using (FAM)-labeled dsDNA as substrate

pIC50 [1] | pIC50 [2] | Compound
< 3.52 |  | O=C(O)c1ccc(Nc2nc(Cl)nc(Cl)n2)cc1-c1c2ccc(=O)cc-2oc2cc(O)ccc12
 | 6.46 | CN(C)c1ccc(C(=C2C=CC(=[N+](C)C)C=C2)c2ccc(N(C)C)cc2)cc1 [GENTIAN VIOLET]
